System: HeLa cells
Experiment: Kinetic imaging of NBD-triazine probe uptake and sequestration, fitted to nested two-compartment transport model
Format: cell-based
Conditions: median over optimal solutions within 5% of the best fit
Experimental: In living cells, image data was simultaneously acquired with an automated, high-content, kinetic screening instrument equipped with an environmental chamber (see, e.g., V. C. Abraham, D. L. Taylor and J. R. Haskins, Trends in Biotechnology 22, 15 (2004); herein incorporated by reference in its entirety), as cells were incubated with the fluorescent molecules and after removal of extracellular probe. Data was analyzed off line, using an image analysis algorithm to measure the statistical pixel intensity distribution associated with fluorescence probe sequestration in the perinuclear region (see, e.g., FIG. 21; see also, e.g., G. J. Ding et al., Journal of Biological Chemistry 273, 28897 (1998); herein incorporated by reference in its entirety). Data was parametrized with a nested, two-compartment, transport model (see, e.g., W. E. Evans, J. J. Schentag and W. J. Jusko., Applied Pharmacokinetics: Principles of Therapeutic Drug Monitoring (Lippincott Williams & Wilkins, Vancouver, W.A., 1992); herein incorporated by reference in its entirety), using a statistical link function to relate the kinetic coefficient of variation (CV) of pixel intensities in the images with the concentration of probe in vesicles and cytoplasm. Optimal kinetic parameters fitting the experimental data for each probe to the system described by the two-compartment model and statistical link function were determined using the simulated annealing technique (see, e.g., M. Pincus., Oper. Res. 18, 1225 (1979); herein incorporated by reference in its entirety). The present invention is not limited to a particular mechanism. Indeed, an understanding of the mechanism is not necessary to practice the present invention.
To assess how well the model accounts for all the different kinetic traces acquired, a “PVE” (proportion of variance explained) by the model was calculated. The PVE is one minus the ratio of the sum of squared differences between observed and fitted values to the sum of squared differences between observed values and their mean. PVE values close to one indicate good fit to the nested two-compartment model. The average PVE across the probes was 0.92, with >50% of the probes yielded PVE values […]. The present invention is not limited to a particular mechanism. Indeed, an understanding of the mechanism is not necessary to practice the present invention.
Cell culture. HeLa cells were grown in RPMI+10% FCS in a 5% CO2 atmosphere at 37° C. and plated in 96-well plates at a density of 3000 cells/well 24 hours prior to the start of the experiment.
Kinetic Imaging. For influx experiments, cells on 96-well plates were switched to imaging media consisting of RPMI containing 1.0 mM Bromophenol Blue—a soluble, cell-impermeant chromophore used to suppress excitation and emission of extracellular (background) dye fluorescence-, 10 μM probe and 0.1 μM Hoescht 33258 to label the cell nuclei. Plates were then transferred to a KineticScan instrument (Cellomics, Inc., Pittsburgh, Pa.), which contains an environmentally controlled CO2/temperature/humidity chamber, and data was acquired with a 20× objective lens. Images acquisition began approximately 10 min after dye addition, using the Hoescht channel to acquire nuclear images and FITC channel to acquire the NBD image. Plate-scanning mode was used for scanning, in which the instrument builds time-stacks of images by scanning the plate multiple times, returning to the same site of the plate at every scan. For efflux experiments, dye-containing media was removed from the wells of the plate. The wells were washed twice with fresh RPMI medium, imaging media was added, and image acquisition restarted 7 min after the dye-containing media was removed. The last time points of the influx experiment served as the first time point of the efflux experiment. Plates were scanned for approximately two hours in the influx experiment and six hours for the efflux experiment, with each well imaged on average every 7 minutes. […]

Row | Compound | median Pap(cyto) (apparent partition coefficient between extracellular medium and cytosol) | median Pap(ves) (apparent partition coefficient between cytosol and intracellular vesicles, k(ves)in/k(ves)out)
1 | CCCCNc1nc(NCCCCCCNc2ccc([N+](=O)[O-])c3nonc23)nc(NCc2ccccc2)n1 [Compound A1] | 185.83 | 0.52
2 | CC(C)Nc1nc(NCCCCCCNc2ccc([N+](=O)[O-])c3nonc23)nc(NCc2ccccc2)n1 [Compound A2] | 13.18 | 13.98
3 | CCCCCCCCNc1nc(NCCCCCCNc2ccc([N+](=O)[O-])c3nonc23)nc(NCc2ccccc2)n1 [Compound A3] | 12.96 | 6.45
4 | CC1CCC(Nc2nc(NCCCCCCNc3ccc([N+](=O)[O-])c4nonc34)nc(NCc3ccccc3)n2)CC1 (stereo not drawn) [Compound A4] | 7.72 | 29.83
5 | CC1CCCCC1Nc1nc(NCCCCCCNc2ccc([N+](=O)[O-])c3nonc23)nc(NCc2ccccc2)n1 (stereo not drawn) [Compound A5] | 19.23 | 12.11
6 | O=[N+]([O-])c1ccc(NCCCCCCNc2nc(NCc3ccccc3)nc(NCC3CCCCC3)n2)c2nonc12 [Compound A6] | 151.26 | 0.30
7 | O=[N+]([O-])c1ccc(NCCCCCCNc2nc(NCc3ccccc3)nc(NC3CCCCC3)n2)c2nonc12 [Compound A7] | 7.55 | 33.83
8 | CC(C)CCNc1nc(NCCCCCCNc2ccc([N+](=O)[O-])c3nonc23)nc(NCc2ccccc2)n1 [Compound A8] | 3.75 | 63.22
9 | O=[N+]([O-])c1ccc(NCCCCCCNc2nc(NCCc3ccccn3)nc(NCc3ccccc3)n2)c2nonc12 [Compound A9] | 11.54 | 19.12
10 | CCCCNc1nc(NCCCCCCNc2ccc([N+](=O)[O-])c3nonc23)nc(NCc2cccc(OC)c2)n1 [Compound B1] | 262.28 | 0.31
11 | COc1cccc(CNc2nc(NCCCCCCNc3ccc([N+](=O)[O-])c4nonc34)nc(NC(C)C)n2)c1 [Compound B2] | 11.59 | 10.82
12 | CCCCCCCCNc1nc(NCCCCCCNc2ccc([N+](=O)[O-])c3nonc23)nc(NCc2cccc(OC)c2)n1 [Compound B3] | 3.43 | 31.61
13 | COc1cccc(CNc2nc(NCCCCCCNc3ccc([N+](=O)[O-])c4nonc34)nc(NC3CCC(C)CC3)n2)c1 (stereo not drawn) [Compound B4] | 18.09 | 12.15
14 | COc1cccc(CNc2nc(NCCCCCCNc3ccc([N+](=O)[O-])c4nonc34)nc(NC3CCCCC3C)n2)c1 (stereo not drawn) [Compound B5] | 9.10 | 9.25
15 | COc1cccc(CNc2nc(NCCCCCCNc3ccc([N+](=O)[O-])c4nonc34)nc(NCC3CCCCC3)n2)c1 [Compound B6] | 242.54 | 0.36
16 | COc1cccc(CNc2nc(NCCCCCCNc3ccc([N+](=O)[O-])c4nonc34)nc(NC3CCCCC3)n2)c1 [Compound B7] | 12.22 | 11.80
17 | COc1cccc(CNc2nc(NCCCCCCNc3ccc([N+](=O)[O-])c4nonc34)nc(NCCC(C)C)n2)c1 [Compound B8] | 9.79 | 23.66
18 | COc1cccc(CNc2nc(NCCCCCCNc3ccc([N+](=O)[O-])c4nonc34)nc(NCCc3ccccc3)n2)c1 [Compound B10] | 8.21 | 27.03
19 | CCCCNc1nc(NCCCCCCNc2ccc([N+](=O)[O-])c3nonc23)nc(NCc2ccc(OC)cc2)n1 [Compound C1] | 10.25 | 22.06

The remaining lines, values ahead:

Row | median Pap(cyto) (apparent partition coefficient between extracellular medium and cytosol) | median Pap(ves) (apparent partition coefficient between cytosol and intracellular vesicles, k(ves)in/k(ves)out) | Compound
20 | 239.41 | 1.03 | COc1ccc(CNc2nc(NCCCCCCNc3ccc([N+](=O)[O-])c4nonc34)nc(NC(C)C)n2)cc1 [Compound C2]
21 | 5.74 | 26.52 | CCCCCCCCNc1nc(NCCCCCCNc2ccc([N+](=O)[O-])c3nonc23)nc(NCc2ccc(OC)cc2)n1 [Compound C3]
22 | 22.58 | 9.87 | COc1ccc(CNc2nc(NCCCCCCNc3ccc([N+](=O)[O-])c4nonc34)nc(NC3CCC(C)CC3)n2)cc1 (stereo not drawn) [Compound C4]
23 | 10.01 | 9.72 | COc1ccc(CNc2nc(NCCCCCCNc3ccc([N+](=O)[O-])c4nonc34)nc(NC3CCCCC3C)n2)cc1 (stereo not drawn) [Compound C5]
24 | 19.15 | 11.94 | COc1ccc(CNc2nc(NCCCCCCNc3ccc([N+](=O)[O-])c4nonc34)nc(NCC3CCCCC3)n2)cc1 [Compound C6]
25 | 12.58 | 12.01 | COc1ccc(CNc2nc(NCCCCCCNc3ccc([N+](=O)[O-])c4nonc34)nc(NC3CCCCC3)n2)cc1 [Compound C7]
26 | 8.56 | 31.04 | COc1ccc(CNc2nc(NCCCCCCNc3ccc([N+](=O)[O-])c4nonc34)nc(NCCC(C)C)n2)cc1 [Compound C8]
27 | 12.33 | 16.46 | COc1ccc(CNc2nc(NCCCCCCNc3ccc([N+](=O)[O-])c4nonc34)nc(NCCc3ccccn3)n2)cc1 [Compound C9]
28 | 12.15 | 15.51 | CCCCNc1nc(NCCCCCCNc2ccc([N+](=O)[O-])c3nonc23)nc(NCCc2ccc(OC)cc2)n1 [Compound D1]
29 | 149.28 | 1.53 | COc1ccc(CCNc2nc(NCCCCCCNc3ccc([N+](=O)[O-])c4nonc34)nc(NC(C)C)n2)cc1 [Compound D2]
30 | 2.75 | 101.21 | CCCCCCCCNc1nc(NCCCCCCNc2ccc([N+](=O)[O-])c3nonc23)nc(NCCc2ccc(OC)cc2)n1 [Compound D3]

— patent publication US20070111251A1, “Chemical address tags” (priority 2003, published 2007)
